Laboratory results reported in ChEMBL document CHEMBL5055651, “Synthesis of small molecules targeting paclitaxel-induced MyD88 expression in triple-negative breast cancer cell lines” (Bioorg Med Chem, 2021).
pIC50: −log10 of the molar value.

Tests used:
MDA-MB-231 [1] = test: Cytotoxicity against human MDA-MB-231 cells expressing TLR4 assessed as reduction in cell viability measured after 96 hrs by MTT assay; format: functional, cell-based; conditions: MDA-MB-231, 96 h
HCC1806 [2] = test: Cytotoxicity against human HCC1806 cells assessed as reduction in cell viability measured after 96 hrs by MTT assay; format: functional, cell-based; conditions: HCC1806, 96 h
MCF7 [3] = test: Cytotoxicity against human MCF7 cells expressing TLR4 assessed as reduction in cell viability measured after 96 hrs by MTT assay; format: functional, cell-based; conditions: MCF7, 96 h
BEAS-2B = test: Cytotoxicity against human BEAS-2B cells reduction in cell viability measured after 96 hrs by MTT assay; format: cell-based
[4] = Effect on MyD88 expression in human MDA-MB-231 cells expressing TLR4 at 0.1 to 10 uM after 24 hrs by ELISA; format: cell-based; conditions: mda-mb-231, 24 h, dose 0.1-10 µM
[5] = Suppression of MyD88 expression in human MDA-MB-231 cells expressing TLR4 at 0.1 uM pretreated with compounds for 24 hrs followed by PTX challenge and measured after 24 hrs by ELISA relative to control; format: functional; conditions: time 48 hrs
[6] = Suppression of MyD88 expression in human MDA-MB-231 cells expressing TLR4 at 1 uM pretreated with compounds for 24 hrs followed by PTX challenge and measured after 24 hrs by ELISA relative to control; format: functional; conditions: time 48 hrs
[7] = Suppression of MyD88 expression in human MDA-MB-231 cells expressing TLR4 at 10 uM pretreated with compounds for 24 hrs followed by PTX challenge and measured after 24 hrs by ELISA relative to control; format: functional; conditions: time 48 hrs
MDA-MB-231 [8] = test: Cytotoxicity against human MDA-MB-231 cells expressing TLR4 assessed cell growth inhibition at 10 uM measured after 96 hrs by MTT assay relative to control; format: functional; conditions: read-out: GI
HCC1806 [9] = test: Cytotoxicity against human HCC1806 cells assessed cell growth inhibition at 10 uM measured after 96 hrs by MTT assay relative to control; format: functional; conditions: read-out: GI
MCF7 [10] = test: Cytotoxicity against human MCF7 cells expressing TLR4 assessed cell growth inhibition at 10 uM measured after 96 hrs by MTT assay relative to control; format: functional; conditions: read-out: GI
MDA-MB-231 [11] = test: Cytotoxicity against human MDA-MB-231 cells expressing TLR4 assessed as cell viability at 10 uM measured after 96 hrs by MTT assay relative to control; format: functional; conditions: read-out: Activity
HCC1806 [12] = test: Cytotoxicity against human HCC1806 cells assessed as cell viability at 10 uM measured after 96 hrs by MTT assay relative to control; format: functional; conditions: read-out: Activity
MCF7 [13] = test: Cytotoxicity against human MCF7 cells expressing TLR4 assessed as cell viability at 10 uM measured after 96 hrs by MTT assay relative to control; format: functional; conditions: read-out: Activity
[14] = Selectivity index, ratio of IC50 for human BEAS-2B cells to IC50 for human MDA-MB-231 cells; format: toxicity; conditions: BEAS-2B cells versus MDA-MB-231 cells, read-out: Selectivity Index
[15] = Selectivity index, ratio of IC50 for human BEAS-2B cells to IC50 for human MCF7 cells; format: toxicity; conditions: BEAS-2B cells versus MCF7 cells, read-out: Selectivity Index
MDA-MB-231 [16] = test: Cytotoxicity against human MDA-MB-231 cells expressing TLR4 assessed as growth inhibition measured after 96 hrs by MTT assay; format: functional, cell-based; conditions: MDA-MB-231, 96 h
HCC1806 [17] = test: Cytotoxicity against human HCC1806 cells assessed as growth inhibition measured after 96 hrs by MTT assay; format: cell-based; conditions: HCC1806, 96 h

Activity [4] [%]	Structure (SMILES)	pIC50 (MDA-MB-231 [1])	pIC50 (HCC1806 [2])	pIC50 (MCF7 [3])	pIC50 (BEAS-2B)	Activity [5] [%]	Activity [6] [%]	Activity [7] [%]	inhibition of growth at 10 µM (MDA-MB-231 [8]) [%]	inhibition of growth at 10 µM (HCC1806 [9]) [%]	inhibition of growth at 10 µM (MCF7 [10]) [%]	viability at 10 µM (MDA-MB-231 [11]) [%]	viability at 10 µM (HCC1806 [12]) [%]	viability at 10 µM (MCF7 [13]) [%]	selectivity ratio [14]	selectivity ratio [15]	pIC50 (MDA-MB-231 [16])	pIC50 (HCC1806 [17])
23	O=C(C1=C(O)/C(=C/c2ccc(C(F)(F)F)cc2)CCC1)c1ccccc1	5.19	5.27	5.64	5.42	17.64	24.77	27.94	8	8	8							
	COc1cc(C)ccc1/C=C1\CCCC(C(=O)c2ccccc2)=C1O											87	87	87				
	CC(=O)O[C@H]1C(=O)[C@@]2(C)[C@H]([C@H](OC(=O)c3ccccc3)[C@]3(O)C[C@H](OC(=O)[C@H](O)[C@@H](NC(=O)c4ccccc4)c4ccccc4)C(C)=C1C3(C)C)[C@]1(OC(C)=O)CO[C@@H]1C[C@@H]2O [PACLITAXEL]	7.40	8.05	7.52	8.10										0.2	0.26	7.57	8.10
